Laboratory results as given in ChEMBL document CHEMBL1201862, “PubChem BioAssay data set” (2004).
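Where inhibition never reached the appropriate level, the endpoint shown equals the highest concentration tested. Otherwise, values were interpolated linearly from a five-concentration, 48-hour dose response in 96-well plates. GI50 is the concentration that inhibits growth by half.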 Activity calls are given as the source filed them. Rule as the data show it: active = GI50 up to about 1.1 µM and inactive = higher. *1 amine or outer side, *2 acyl side, *3 side chain or, on linkers, in order; H or OH if unused. Where a SMILES comes first, the peptide text is derived from it. Bridges are numbered along the chain shown (N, C = ends). [ ]: non-standard residue; d: D form. The star is where a group is joined. ξ: configuration not given here. ξOrn(4,5-diOH) = O=C(C(CC(O)C(O)N[*:3])N[*:1])[*:2]; ξhTyr(βξ-OH,γξ-OH) = NC(C(=O)O)C(O)C(O)c1ccc(O)cc1; ξPro(3ξ-OH,4ξ-Me) = CC1CNC(C(=O)O)C1O; X55 = CCCCC/C=C/C/C=C\CCCCCCCC(=O)*; Hyp = O=C(O)[CH]1C[CH](O)CN1

How the values were obtained:
Assay in all cases: NCI tumour cell line growth inhibition, 48 h
SK-MEL-28 = system: SK-MEL-28
UACC-257 = system: UACC-257
RPMI-8226 = system: RPMI-8226
786-0 = system: 786-0
OVCAR-5 = system: OVCAR-5
HCT-116 = system: HCT-116
Hs-578T = system: Hs-578T
HL-60 = system: HL-60
TK-10 = system: TK-10
HCC 2998 = system: HCC 2998
DU-145 = system: DU-145
SNB-75 = system: SNB-75
UO-31 = system: UO-31
M14 = system: M14
MOLT-4 = system: MOLT-4
NCI-H522 = system: NCI-H522
COLO 205 = system: COLO 205
MCF7 = system: MCF7
SK-OV-3 = system: SK-OV-3
NCI-H226 = system: NCI-H226

Compound	GI50 (SK-MEL-28)	GI50 (UACC-257)	GI50 (RPMI-8226)	GI50 (786-0)	GI50 (OVCAR-5)	GI50 (HCT-116)	GI50 (Hs-578T)	GI50 (HL-60)	GI50 (TK-10)	GI50 (HCC 2998)	GI50 (DU-145)	GI50 (SNB-75)	GI50 (UO-31)	GI50 (M14)	GI50 (MOLT-4)	GI50 (NCI-H522)	GI50 (COLO 205)	GI50 (MCF7)	GI50 (SK-OV-3)	GI50 (NCI-H226)
CCCCC/C=C/C/C=C\CCCCCCCC(=O)NC1CC(O)C(O)NC(=O)C2C(O)C(C)CN2C(=O)C(C(C)O)NC(=O)C(C(O)C(O)c2ccc(O)cc2)NC(=O)C2CC(O)CN2C(=O)C(C(C)O)NC1=O (stereo not drawn) (X55-[ξOrn(4,5-diOH)]T[Hyp][ξhTyr(βξ-OH,γξ-OH)]T[ξPro(3ξ-OH,4ξ-Me)]; lactam 1-C; configuration not given here)	> 100 µM (inactive)	> 100 µM (inactive)	> 100 µM (inactive)	> 100 µM (inactive)	> 100 µM (inactive)	> 100 µM (inactive)	> 100 µM (inactive)	> 100 µM (inactive)	> 100 µM (inactive)	> 100 µM (inactive)	> 100 µM (inactive)	> 100 µM (inactive)	> 100 µM (inactive)	> 100 µM (inactive)	> 100 µM (inactive)	> 100 µM (inactive)	> 100 µM (inactive)			
O=C1N(c2ccccc2)N=C2c3ccncc3C3=NN(c4ccccc4)C(=O)C123 (stereo not drawn)	> 22 µM (inactive)	27.1 µM (inactive)		> 100 µM (inactive)	> 65.2 µM (inactive)	> 29.7 µM (inactive)	> 100 µM (inactive)	0.619 µM (active)	> 100 µM (inactive)	6.68 µM (inactive)		> 100 µM (inactive)	2.35 µM (inactive)		0.504 µM (active)	> 100 µM (inactive)	2.12 µM (inactive)	> 35.6 µM (inactive)	> 100 µM (inactive)	> 100 µM (inactive)
O=C(NC(=S)Nc1ccc([N+](=O)[O-])cc1)c1ccc2c(c1)Sc1ccccc1O2	> 100 µM (inactive)	> 100 µM (inactive)		44.8 µM (inactive)	> 100 µM (inactive)	> 100 µM (inactive)	32.8 µM (inactive)	> 100 µM (inactive)	44.2 µM (inactive)		> 100 µM (inactive)	13.8 µM (inactive)	> 100 µM (inactive)	> 100 µM (inactive)	> 100 µM (inactive)	48.1 µM (inactive)	> 100 µM (inactive)	> 100 µM (inactive)	77.1 µM (inactive)	> 100 µM (inactive)
Cc1cn(C(C)OCCN2C(=O)c3ccccc3C2=O)c(=O)[nH]c1=O (stereo not drawn)	> 100 µM (inactive)	> 100 µM (inactive)	> 100 µM (inactive)	> 100 µM (inactive)	> 100 µM (inactive)	> 100 µM (inactive)				> 100 µM (inactive)	> 100 µM (inactive)	> 100 µM (inactive)	> 100 µM (inactive)	> 100 µM (inactive)	> 100 µM (inactive)		> 100 µM (inactive)	> 100 µM (inactive)		> 100 µM (inactive)
CC1(C)OC2COC3([C@@H]4OC(C)(C)O[C@@H]4CO)OC(C)(C)OC3C2O1 (stereo partly drawn)	> 100 µM (inactive)	> 100 µM (inactive)	> 100 µM (inactive)	> 100 µM (inactive)	> 100 µM (inactive)	> 100 µM (inactive)				> 100 µM (inactive)	> 100 µM (inactive)	> 100 µM (inactive)	> 100 µM (inactive)	> 100 µM (inactive)			> 100 µM (inactive)	> 100 µM (inactive)		> 100 µM (inactive)
COC(=O)c1ccccc1Nc1ccccc1C(=O)OC	> 100 µM (inactive)	> 100 µM (inactive)	64.1 µM (inactive)	53.5 µM (inactive)	> 100 µM (inactive)	> 100 µM (inactive)	20.8 µM (inactive)	> 100 µM (inactive)	41.2 µM (inactive)		> 100 µM (inactive)	39.3 µM (inactive)		> 100 µM (inactive)	> 100 µM (inactive)	32.1 µM (inactive)	> 100 µM (inactive)	> 100 µM (inactive)	> 100 µM (inactive)	23.7 µM (inactive)
Nc1cccc2nnccc12		> 100 µM (inactive)	> 100 µM (inactive)	> 100 µM (inactive)	> 100 µM (inactive)	> 100 µM (inactive)	> 100 µM (inactive)	> 100 µM (inactive)	> 100 µM (inactive)		> 100 µM (inactive)	> 100 µM (inactive)	> 100 µM (inactive)	> 100 µM (inactive)		19 µM (inactive)	> 100 µM (inactive)	> 100 µM (inactive)	> 100 µM (inactive)	> 100 µM (inactive)
O=S(=O)(O)c1cc(O)c2c(/N=C\c3ccccc3O)cc(S(=O)(=O)O)cc2c1	> 100 µM (inactive)	> 100 µM (inactive)	> 100 µM (inactive)	> 100 µM (inactive)	> 100 µM (inactive)	> 100 µM (inactive)		57.9 µM (inactive)	> 100 µM (inactive)	> 100 µM (inactive)	> 100 µM (inactive)	93.5 µM (inactive)	> 100 µM (inactive)	> 100 µM (inactive)	9.57 µM (inactive)	> 100 µM (inactive)	> 100 µM (inactive)	> 100 µM (inactive)	> 100 µM (inactive)	> 100 µM (inactive)
COC(=O)c1c2c(cc3c1CC1(C3)Cc3cc4c(c(C(=O)OC)c3C1)CCCC4)CCCC2		> 100 µM (inactive)	49.8 µM (inactive)	> 100 µM (inactive)	> 100 µM (inactive)	> 100 µM (inactive)	> 100 µM (inactive)	24.2 µM (inactive)	> 100 µM (inactive)	> 100 µM (inactive)			0.381 µM (active)	> 100 µM (inactive)	57.5 µM (inactive)	> 100 µM (inactive)	> 100 µM (inactive)	> 100 µM (inactive)	> 100 µM (inactive)	> 100 µM (inactive)
Nc1ccn(C2OC(CO)C(O)C2(F)F)c(=O)n1 (stereo not drawn)		0.312 µM (active)	0.281 µM (active)	0.055 µM (active)	0.547 µM (active)	0.0579 µM (active)		0.0249 µM (active)		0.728 µM (active)	0.179 µM (active)		0.0658 µM (active)	0.0313 µM (active)	0.091 µM (active)	0.318 µM (active)	0.82 µM (active)	0.0847 µM (active)	0.667 µM (active)	0.706 µM (active)
Cn1c(=O)sc2cc(C(=S)N3CCN(c4ccccc4)CC3)ccc21	97.1 µM (inactive)	> 100 µM (inactive)	> 100 µM (inactive)	44 µM (inactive)	97.1 µM (inactive)	85.5 µM (inactive)	55.8 µM (inactive)	33.6 µM (inactive)	71.9 µM (inactive)		> 100 µM (inactive)	28.7 µM (inactive)		> 100 µM (inactive)	> 100 µM (inactive)		> 100 µM (inactive)	64.3 µM (inactive)	32.3 µM (inactive)	55.3 µM (inactive)
Cc1cc(O)nc(/N=C(\N)Nc2ccc(Cl)cc2)n1	> 100 µM (inactive)	> 100 µM (inactive)	> 100 µM (inactive)	> 100 µM (inactive)	> 100 µM (inactive)	> 100 µM (inactive)	> 100 µM (inactive)	> 100 µM (inactive)	> 100 µM (inactive)	> 100 µM (inactive)	> 100 µM (inactive)		> 100 µM (inactive)	> 100 µM (inactive)	> 100 µM (inactive)	> 100 µM (inactive)				> 100 µM (inactive)
Cc1c(Cl)nc(Nc2nc3ccccc3[nH]2)nc1Cl	40 µM (inactive)	> 100 µM (inactive)	> 100 µM (inactive)	59.4 µM (inactive)	> 100 µM (inactive)	> 100 µM (inactive)	27.2 µM (inactive)	> 100 µM (inactive)	> 100 µM (inactive)		39.4 µM (inactive)	> 100 µM (inactive)	> 100 µM (inactive)	> 100 µM (inactive)	> 100 µM (inactive)	89.5 µM (inactive)	72.3 µM (inactive)		> 100 µM (inactive)	> 100 µM (inactive)
Oc1c(OCc2nnc(CCCCCCCCc3nnc(COc4ccc5ccccc5c4O)o3)o2)ccc2ccccc12	> 100 µM (inactive)	> 100 µM (inactive)	> 100 µM (inactive)	16.6 µM (inactive)	> 100 µM (inactive)	0.47 µM (active)			> 100 µM (inactive)	> 100 µM (inactive)	> 100 µM (inactive)	62.7 µM (inactive)	59.6 µM (inactive)	> 100 µM (inactive)	19.7 µM (inactive)	> 100 µM (inactive)	> 100 µM (inactive)	> 100 µM (inactive)	44.5 µM (inactive)	> 100 µM (inactive)
NC(Cc1c2ccccc2cc2ccccc12)C(=O)O (stereo not drawn)	> 100 µM (inactive)	> 100 µM (inactive)		> 100 µM (inactive)	> 100 µM (inactive)	83.9 µM (inactive)		> 100 µM (inactive)	> 100 µM (inactive)	> 100 µM (inactive)	85.1 µM (inactive)	14 µM (inactive)	78.7 µM (inactive)	> 100 µM (inactive)	37 µM (inactive)	> 100 µM (inactive)	38.4 µM (inactive)	> 100 µM (inactive)	> 100 µM (inactive)	22.5 µM (inactive)
CNc1cc(OCc2ccccc2)c(OC)cc1C(=O)N1CCC[C@H]1CO	> 100 µM (inactive)	> 100 µM (inactive)		> 100 µM (inactive)	> 100 µM (inactive)	> 100 µM (inactive)	> 100 µM (inactive)	44.1 µM (inactive)	> 100 µM (inactive)		> 100 µM (inactive)	> 100 µM (inactive)	63.2 µM (inactive)	> 100 µM (inactive)	> 100 µM (inactive)	73.8 µM (inactive)	> 100 µM (inactive)	> 100 µM (inactive)	> 100 µM (inactive)	> 100 µM (inactive)
